Earlier results in patent publication US6660871B2, “Synthesis of 4H-chromene derivatives” (Thomas Jefferson Unversity, priority 2001, dated 2003).

Tested on: tumor cells

Structure (SMILES): CCOC(=O)C1=C(N)Oc2ccc(Br)cc2C1C(C#N)C(=O)OCC (stereo not shown) [HA14-1]
- apoptosis of tumor cells: induces apoptosis of tumor cells
